Measured values reported in the NIST ThermoML archive (doi:10.1016/j.jct.2016.03.032).

Assay: mn = molality of the nth substance listed, in mol/kg
Conditions: 298.15 K, Liquid, Frequency=10 MHz, Single path-length method

NCC(=O)N[C@@H](CC(N)=O)C(=O)NCC(=O)O [glycyl-L-asparaginylglycine] + O
speed of sound [m/s]
Conditions	10000 kPa	20000 kPa	40000 kPa	60000 kPa	80000 kPa	100000 kPa	120000 kPa
m1 = 0.01982	1515.6	1532.4	1566	1599.5	1632.8	1666	1698.8
m1 = 0.02619	1516.3	1533.1	1566.7	1600.2	1633.5	1666.7	1699.6
m1 = 0.02894	1516.6	1533.4	1567.1	1600.5	1633.9	1667	1699.9
m1 = 0.03507	1517.3	1534.1	1567.8	1601.3	1634.6	1667.8	–
m1 = 0.03983	1517.8	1534.6	1568.3	1601.8	1635.1	1668.3	–

CC(C)C[C@H](NC(=O)CN)C(=O)NCC(=O)O [glycyl-L-leucylglycine] + O
speed of sound [m/s]
Conditions	10000 kPa	20000 kPa	40000 kPa	60000 kPa	80000 kPa	100000 kPa	120000 kPa
m1 = 0.02682	1517.5	1534.2	1567.7	1601.1	1634.4	1667.5	1700.2
m1 = 0.03524	1518.6	1535.4	1568.9	1602.3	1635.6	1668.7	1701.4
m1 = 0.04618	1520.2	1537	1570.6	1604	1637.2	1670.2	1702.9
m1 = 0.05878	1522.1	1538.9	1572.4	1605.8	1639	1672	1704.7
m1 = 0.06956	1523.7	1540.5	1574	1607.3	1640.6	1673.5	1706.2
m1 = 0.07978	1525.2	1542	1575.5	1608.8	1642	1674.9	1707.5

NCC(=O)N[C@@H](Cc1ccc(O)cc1)C(=O)NCC(=O)O [glycyl-L-tyrosylglycine] + O
speed of sound [m/s]
Conditions	10000 kPa	20000 kPa	40000 kPa	60000 kPa	80000 kPa	100000 kPa	120000 kPa
m1 = 0.02297	1516.3	1533.1	1566.7	1600.1	1633.5	1666.6	1699.5
m1 = 0.02401	1516.5	1533.2	1566.8	1600.3	1633.6	1666.8	1699.6
m1 = 0.02562	1516.7	1533.5	1567	1600.5	1633.9	1667	1699.8
m1 = 0.02676	1516.8	1533.6	1567.2	1600.7	1634	1667.1	1700
m1 = 0.02756	1516.9	1533.7	1567.3	1600.8	1634.1	1667.3	1700.1
m1 = 0.02905	1517	1533.9	1567.4	1601	1634.3	1667.5	1700.3

NCC(=O)NCC(=O)NCC(=O)O [glycylglycylglycine] + O
speed of sound [m/s]
Conditions	10000 kPa	20000 kPa	40000 kPa	60000 kPa	80000 kPa	100000 kPa	120000 kPa
m1 = 0.03621	1516.9	1533.8	1567.4	1600.8	1634.2	1667.4	1700.2
m1 = 0.0487	1518.2	1535	1568.6	1602.1	1635.5	1668.6	1701.4
m1 = 0.06185	1519.5	1536.3	1570	1603.4	1636.8	1669.9	1702.8
m1 = 0.07503	1520.8	1537.7	1571.3	1604.8	1638.2	1671.3	1704
m1 = 0.08705	1522.1	1538.9	1572.5	1606.1	1639.4	1672.5	1705.2
m1 = 0.1005	1523.3	1540.2	1573.8	1607.4	1640.7	1673.8	1706.6
